Test results reported in patent publication US6479435B1, “Diaryl ethers and processes for their preparation and herbicidal and desiccant compositions containing them” (ISK Americas Incorporated, priority 1997, dated 2002).

How the values were obtained:
Format in all cases: in vivo
[1] = system: Johnsongrass (Sorghum halepense, SORHA); test: Pre-emerge greenhouse herbicide test, phytotoxicity rating; settings: 14 days after application, rating scale 0-100
How it was run: (§1)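 Visual 0–100 injury rating (100 = all plants dead) taken 14 days after treatment. Rates of 125–1000 g ai/ha in acetone, 187 l/ha, were sprayed onto soil one day post-sowing; pots were surface-watered to incorporate, then bottom-watered.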

[2] = system: barnyardgrass (Echinochloa crusgalli, ECHCG); test: as above; settings: 14 days after application, rating scale 0-100
How it was run: as §1

[3] = system: common ragweed (Ambrosia artemisiifolia L., AMBEL); test: as above; settings: 14 days after application, rating scale 0-100
How it was run: as §1

[4] = system: green foxtail (Setaria viridis, SETVI); test: as above; settings: 14 days after application, rating scale 0-100
How it was run: as §1

[5] = system: ivyleaf morningglory (Ipomoea hederacea, IPOHE); test: as above; settings: 14 days after application, rating scale 0-100
How it was run: as §1

[6] = system: lambsquarters (Chenopodium album, CHEAL); test: as above; settings: 14 days after application, rating scale 0-100
How it was run: as §1

[7] = system: large crabgrass (Digitaria sanguinalis, DIGSA); test: as above; settings: 14 days after application, rating scale 0-100
How it was run: as §1

[8] = system: redroot pigweed (Amaranthus retroflexus, AMARE); test: as above; settings: 14 days after application, rating scale 0-100
How it was run: as §1

[9] = system: sicklepod (Cassia obtusifolia, CASOB); test: as above; settings: 14 days after application, rating scale 0-100
How it was run: as §1

[10] = system: velvetleaf (Abutilon theophrasti, ABUTH); test: as above; settings: 14 days after application, rating scale 0-100
How it was run: as §1

[11] = system: field corn (Zea mays L., var. Dekalb 535, CORN); test: Pre-emerge greenhouse test, crop damage rating; settings: 14 days after application, rating scale 0-100
How it was run: as §1

[12] = system: upland rice (Oryza sp., var.Tebonnet, RICE); test: Pre-emerge greenhouse test, crop damage rating; settings: 14 days after application, rating scale 0-100
How it was run: as §1

[13] = system: soybean (Glycine max L., var. Pella 86, SOY); test: Pre-emerge greenhouse test, crop damage rating; settings: 14 days after application, rating scale 0-100
How it was run: as §1

[14] = system: common ragweed (Ambrosia artemisiifolia L., AMBEL); test: Post-emerge greenhouse herbicide test, phytotoxicity rating; settings: 14 days after application
How it was run: (§2)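 Scores use a 0 (no damage) to 100 (complete kill) scale, taken 14 days after a foliar spray. Acetone solutions with 0.25% v/v non-ionic surfactant were applied by track sprayer at 187 l/ha and 63-1000 g ai/ha to bottom-watered 2-3 leaf plants.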

[15] = system: Johnsongrass (Sorghum halepense, SORHA); test: as above; settings: 14 days after application
How it was run: as §2

[16] = system: barnyardgrass (Echinochloa crusgalli, ECHCG); test: as above; settings: 14 days after application
How it was run: as §2

[17] = system: green foxtail (Setaria viridis, SETVI); test: as above; settings: 14 days after application
How it was run: as §2

[18] = system: ivyleaf morningglory (Ipomoea hederacea, IPOHE); test: as above; settings: 14 days after application
How it was run: as §2

[19] = system: lambsquarters (Chenopodium album, CHEAL); test: as above; settings: 14 days after application
How it was run: as §2

[20] = system: large crabgrass (Digitaria sanguinalis, DIGSA); test: as above; settings: 14 days after application
How it was run: as §2

[21] = system: redroot pigweed (Amaranthus retroflexus, AMARE); test: as above; settings: 14 days after application
How it was run: as §2

[22] = system: sicklepod (Cassia obtusifolia, CASOB); test: as above; settings: 14 days after application
How it was run: as §2

[23] = system: velvetleaf (Abutilon theophrasti, ABUTH); test: as above; settings: 14 days after application
How it was run: as §2

[24] = system: field corn (Zea mays L., var. Dekalb 535, CORN); test: Post-emerge greenhouse test, crop damage rating; settings: 14 days after application
How it was run: as §2

[25] = system: upland rice (Oryza sp., var.Tebonnet, RICE); test: Post-emerge greenhouse test, crop damage rating; settings: 14 days after application
How it was run: as §2

[26] = system: soybean (Glycine max L., var. Pella 86, SOY); test: Post-emerge greenhouse test, crop damage rating; settings: 14 days after application
How it was run: as §2

## O=c1n(CCCF)nnn1-c1cc(Oc2ncccc2[N+](=O)[O-])c(Cl)cc1F [Compound 6-2]
[1]; 125 g ai/ha
  phytotoxicity rating SORHA: 0
[1]; 500 g ai/ha
  phytotoxicity rating SORHA: 0
[2]; 125 g ai/ha
  phytotoxicity rating ECHCG: 0
[2]; 500 g ai/ha
  phytotoxicity rating ECHCG: 10
[3]; 125 g ai/ha
  phytotoxicity rating AMBEL: 30
[3]; 500 g ai/ha
  phytotoxicity rating AMBEL: 40
[4]; 125 g ai/ha
  phytotoxicity rating SETVI: 30
[4]; 500 g ai/ha
  phytotoxicity rating SETVI: 70
[5]; 125 g ai/ha
  phytotoxicity rating IPOHE: 10
[5]; 500 g ai/ha
  phytotoxicity rating IPOHE: 40
[6]; 125 g ai/ha
  phytotoxicity rating CHEAL: 100
[6]; 500 g ai/ha
  phytotoxicity rating CHEAL: 100
[7]; 125 g ai/ha
  phytotoxicity rating DIGSA: 0
[7]; 500 g ai/ha
  phytotoxicity rating DIGSA: 60
[8]; 125 g ai/ha
  phytotoxicity rating AMARE: 95
[8]; 500 g ai/ha
  phytotoxicity rating AMARE: 99
[9]; 125 g ai/ha
  phytotoxicity rating CASOB: 20
[9]; 500 g ai/ha
  phytotoxicity rating CASOB: 0
[10]; 125 g ai/ha
  phytotoxicity rating ABUTH: 90
[10]; 500 g ai/ha
  phytotoxicity rating ABUTH: 100
[11]; 125 g ai/ha
  crop damage rating CORN: 0
[11]; 500 g ai/ha
  crop damage rating CORN: 0
[12]; 125 g ai/ha
  crop damage rating RICE: 20
[12]; 500 g ai/ha
  crop damage rating RICE: 10
[13]; 125 g ai/ha
  crop damage rating SOY: 10
[13]; 500 g ai/ha
  crop damage rating SOY: 15
[14]; 63 g al/ha
  AMBEL phytotoxicity rating (0-100): 10
[14]; 500 g al/ha
  AMBEL phytotoxicity rating (0-100): 30
[15]; 63 g al/ha
  SORHA phytotoxicity rating (0-100): 0
[15]; 500 g al/ha
  SORHA phytotoxicity rating (0-100): 20
[16]; 63 g al/ha
  ECHCG phytotoxicity rating (0-100): 0
[16]; 500 g al/ha
  ECHCG phytotoxicity rating (0-100): 30
[17]; 63 g al/ha
  SETVI phytotoxicity rating (0-100): 10
[17]; 500 g al/ha
  SETVI phytotoxicity rating (0-100): 10
[18]; 63 g al/ha
  IPOHE phytotoxicity rating (0-100): 20
[18]; 500 g al/ha
  IPOHE phytotoxicity rating (0-100): 90
[19]; 63 g al/ha
  CHEAL phytotoxicity rating (0-100): 50
[19]; 500 g al/ha
  CHEAL phytotoxicity rating (0-100): 90
[20]; 63 g al/ha
  DIGSA phytotoxicity rating (0-100): 0
[20]; 500 g al/ha
  DIGSA phytotoxicity rating (0-100): 0
[21]; 63 g al/ha
  AMARE phytotoxicity rating (0-100): 40
[21]; 500 g al/ha
  AMARE phytotoxicity rating (0-100): 95
[22]; 63 g al/ha
  CASOB phytotoxicity rating (0-100): 0
[22]; 500 g al/ha
  CASOB phytotoxicity rating (0-100): 10
[23]; 63 g al/ha
  ABUTH phytotoxicity rating (0-100): 98
[23]; 500 g al/ha
  ABUTH phytotoxicity rating (0-100): 100
[24]; 63 g al/ha
  CORN crop damage rating (0-100): 5
[24]; 500 g al/ha
  CORN crop damage rating (0-100): 5
[25]; 63 g al/ha
  RICE crop damage rating (0-100): 0
[25]; 500 g al/ha
  RICE crop damage rating (0-100): 30
[26]; 63 g al/ha
  SOY crop damage rating (0-100): 20
[26]; 500 g al/ha
  SOY crop damage rating (0-100): 30

## Cn1c(C(F)(F)F)nc(-c2cc(Oc3ncccc3C(F)(F)F)c(Cl)cc2F)c1Cl [Compound 2-2]
[1]; 500 g ai/ha
  phytotoxicity rating SORHA: 30
[2]; 500 g ai/ha
  phytotoxicity rating ECHCG: 0
[3]; 500 g ai/ha
  phytotoxicity rating AMBEL: 20
[4]; 500 g ai/ha
  phytotoxicity rating SETVI: 100
[5]; 500 g ai/ha
  phytotoxicity rating IPOHE: 60
[6]; 500 g ai/ha
  phytotoxicity rating CHEAL: 60
[7]; 500 g ai/ha
  phytotoxicity rating DIGSA: 20
[8]; 500 g ai/ha
  phytotoxicity rating AMARE: 100
[9]; 500 g ai/ha
  phytotoxicity rating CASOB: 0
[10]; 500 g ai/ha
  phytotoxicity rating ABUTH: 10
[11]; 500 g ai/ha
  crop damage rating CORN: 0
[12]; 500 g ai/ha
  crop damage rating RICE: 0
[13]; 500 g ai/ha
  crop damage rating SOY: 15
[14]; 500 g al/ha
  AMBEL phytotoxicity rating (0-100): 25
[15]; 500 g al/ha
  SORHA phytotoxicity rating (0-100): 40
[16]; 500 g al/ha
  ECHCG phytotoxicity rating (0-100): 30
[17]; 500 g al/ha
  SETVI phytotoxicity rating (0-100): 30
[18]; 500 g al/ha
  IPOHE phytotoxicity rating (0-100): 75
[19]; 500 g al/ha
  CHEAL phytotoxicity rating (0-100): 90
[20]; 500 g al/ha
  DIGSA phytotoxicity rating (0-100): 10
[21]; 500 g al/ha
  AMARE phytotoxicity rating (0-100): 95
[22]; 500 g al/ha
  CASOB phytotoxicity rating (0-100): 0
[23]; 500 g al/ha
  ABUTH phytotoxicity rating (0-100): 70
[24]; 500 g al/ha
  CORN crop damage rating (0-100): 20
[25]; 500 g al/ha
  RICE crop damage rating (0-100): 40
[26]; 500 g al/ha
  SOY crop damage rating (0-100): 35
